Experiments:
human A2B receptors = human A2B receptors (Homo sapiens (Human), UniProt P29275); experiment: A2B antagonism in cAMP cell-based assay (LANCE cAMP, HEK293); settings: HEK293 cells expressing human A2B receptor
Procedure, shortened: (§1)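 HEK293 cells expressing human A2A or A2B, in HBSS/5 mM HEPES/200 nM rolipram, were preincubated with compound (0.5–10,000 nM, 0.25% DMSO) 30 min at 37° C. Adenosine was then added from 300 nM (A2A) or 600 nM (A2B) solution for 30 min.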

human A2A receptors = human A2A receptors (Homo sapiens (Human), UniProt P29274); experiment: A2A antagonism in cAMP cell-based assay (LANCE cAMP, HEK293); settings: HEK293 cells expressing human A2A receptor
Procedure, shortened: as §1

Chain of human A2B receptors (P29275 whole entry): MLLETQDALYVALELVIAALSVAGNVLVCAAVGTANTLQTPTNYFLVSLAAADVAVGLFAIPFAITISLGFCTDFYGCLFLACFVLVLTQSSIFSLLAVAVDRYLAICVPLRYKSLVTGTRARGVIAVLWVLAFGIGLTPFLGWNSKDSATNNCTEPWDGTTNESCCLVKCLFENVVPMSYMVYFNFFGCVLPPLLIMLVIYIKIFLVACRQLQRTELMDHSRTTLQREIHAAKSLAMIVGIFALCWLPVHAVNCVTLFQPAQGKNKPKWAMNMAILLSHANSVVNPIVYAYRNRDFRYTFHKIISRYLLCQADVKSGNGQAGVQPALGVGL
Chain of human A2A receptors (P29274 whole entry): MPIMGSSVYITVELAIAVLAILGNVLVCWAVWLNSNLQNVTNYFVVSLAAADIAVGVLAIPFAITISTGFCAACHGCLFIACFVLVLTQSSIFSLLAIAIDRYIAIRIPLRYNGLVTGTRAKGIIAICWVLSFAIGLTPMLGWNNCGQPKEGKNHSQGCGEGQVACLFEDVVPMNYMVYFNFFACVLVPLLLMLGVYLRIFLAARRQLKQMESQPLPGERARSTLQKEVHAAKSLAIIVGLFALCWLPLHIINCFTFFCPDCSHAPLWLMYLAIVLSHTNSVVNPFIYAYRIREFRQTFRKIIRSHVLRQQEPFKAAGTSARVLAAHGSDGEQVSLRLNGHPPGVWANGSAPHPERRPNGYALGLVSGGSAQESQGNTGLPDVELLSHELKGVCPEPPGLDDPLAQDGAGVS

SMILES	IC50 (human A2B receptors) [nM]	IC50 (human A2A receptors) [nM]
COc1cc2nc(N)n3nc([C@@H]4CCCN(c5cnn(C(C)C(C)O)c5)C4)nc3c2cc1F (single isomer, unassigned) [Example 187, (2S,3S or 2R,3R)-3-(4-((R)-3-(5-amino-9-fluoro-8-methoxy-[1,2,4]triazolo[1,5-c]quinazolin-2-yl)piperidin-1-yl)-1H-pyrazol-1-yl)butan-2-ol]	95.8	2.6
COc1cc(F)cc2c1nc(N)n1nc([C@@H]3CCCN(c4cnn(C(C)C(C)O)c4C)C3)nc21 (single isomer, unassigned) [Example 194, (2R,3R or 2S,3S)-3-(4-((R)-3-(5-amino-9-fluoro-7-methoxy-[1,2,4]triazolo[1,5-c]quinazolin-2-yl)piperidin-1-yl)-5-methyl-1H-pyrazol-1-yl)butan-2-ol]	318	1.7
COc1cc(F)cc2c1nc(N)n1nc(C3CC(C)CN(c4cnn(C(C)C(C)O)c4C)C3)nc21 (single isomer, unassigned) [Example 222, (2R,3R or 2S,3S)-3-(4-((3S,5R or 3R,5S)-3-(5-amino-9-fluoro-7-methoxy-[1,2,4]triazolo[1,5-c]quinazolin-2-yl)-5-methylpiperidin-1-yl)-5-methyl-1H-pyrazol-1-yl)butan-2-ol]	3280	34.6
COc1cc2nc(N)n3nc([C@@H]4CCCN(c5cnn(C(C)(C)C(C)O)c5)C4)nc3c2cc1F (single isomer, unassigned) [Example 242, (R or S)-3-(4-((R)-3-(5-amino-9-fluoro-8-methoxy-[1,2,4]triazolo[1,5-c]quinazolin-2-yl)piperidin-1-yl)-1H-pyrazol-1-yl)-3-methylbutan-2-ol]	34.9	2
COc1cc2nc(N)n3nc([C@@H]4CCCN(c5cnn(C(C)C(C)O)c5)C4)nc3c2cc1F (single isomer, unassigned) [Example 199, (2R,3S or 2S,3R)-3-(4-((R)-3-(5-amino-9-fluoro-8-methoxy-[1,2,4]triazolo[1,5-c]quinazolin-2-yl)piperidin-1-yl)-1H-pyrazol-1-yl)butan-2-ol]	97.5	2.5
Cc1nn(CC(C)(C)O)cc1N1CC(C)CC(c2nc3c4cc(F)cc(F)c4nc(N)n3n2)C1 (single isomer, unassigned) [Example 168, 1-(4-((3S,5R or 3R,5S)-3-(5-amino-7,9-difluoro-[1,2,4]triazolo[1,5-c]quinazolin-2-yl)-5-methylpiperidin-1-yl)-3-methyl-1H-pyrazol-1-yl)-2-methylpropan-2-ol]	4720	23.9

Reference: patent US11312719B2, “9-substituted amino triazolo quinazoline derivatives as adenosine receptor antagonists, pharmaceutical compositions and their use” (Merck Sharp & Dohme Corp., priority 2018, dated 2022)
